Results as given in patent US9815854B2, “3-(3H-imidazo[4,5-B]pyridin-2-yl)-1H-pyrazolo[3,4-C]pyridine and therapeutic uses thereof” (Samumed, LLC, priority 2014, dated 2017).
Where two headings read alike, the source gives them in different places.

Tested on: Wnt activity (Sp5-Luc reporter, TCF/LEF binding sites) in SW480 colon carcinoma cells
Test: Sp5-Luc Wnt reporter gene screening assay in SW480 colon carcinoma cells
Type: cell-based, human
From the text: The screening assay for Wnt activity is described as follows. Reporter cell lines can be generated by stably transducing cancer cell lines (e.g., colon cancer) or primary cells (e.g., IEC-6 intestinal cells) with a lentiviral construct that includes a Wnt-responsive promoter driving expression of the firefly luciferase gene.
SW480 colon carcinoma cells were transduced with a lentiviral vector expressing luciferase with a human Sp5 promoter consisting of a sequence of eight TCF/LEF binding sites. SW480 cells stably expressing the Sp5-Luc reporter gene and a hygromycin resistance gene were selected by treatment with 150 μg/ml of hygroinycin for 7 days. These stably transduced SW480 cells were expanded in cell culture and used for all further screening activities. For Sp5-Luc reporter gene assays, the cells were plated at 10,000 cells/well in 96-well plates with growth medium containing 10% fetal calf serum and incubated overnight at 37° C. and 5% CO2. Each compound was dissolved in DMSO as a 10 mM stock in standard j-vials and used to prepare compound source plates in dose-response format with 3-fold serial dilutions and a 10 mM top concentration. Compound transfer from serially diluted source plates to assay plates containing the cells was accomplished using a pintool (Multimek 96, Beckman equipped with V&P Scientific FP1S50H pins) based liquid handling protocol. This protocol used a slotted pin to transfer 50 nl of compound from a source plate well to an assay plate well containing 50 μl of cells in growth medium. […] Control wells received 50 nl of DMSO treatment for nommlization and calculating IC50 values. The treated cells were incubated at 37° C. and 5% CO2 for an additional forty-two hours. Following incubation, the growth medium was removed and 50 μl of BrightGlo luminescence reagent (Promega) was added to each well of the 96-well assay plates. The plates were placed on an orbital shaker for 5 min and then luminescence was quantified on the Victor3 (Perkin Elmer) plate reader. Readings were normalized to DMSO only treated cells, and normalized activities were utilized for IC50 calculations using the dose-response log (inhibitor) vs. response—variable slope (four parameters) nonlinear regression feature available in GraphPad Prism 5.0 or 6.0.

| Compound | IC50 (Homo sapiens) | IC50 |
| --- | --- | --- |
| O=C(CC1CCCCC1)Nc1cncc(-c2cc3c(-c4nc5c(-c6cccc(F)c6)ccnc5[nH]4)n[nH]c3cn2)c1 [Compound 951, 2-Cyclohexyl-N-(5-(3-(7-(3-fluorophenyl)-3H-imidazo[4,5-b]pyridin-2-yl)-1H-pyrazolo[3,4-c]pyridin-5-yl)pyridin-3-yl)acetamide] | > 10000 nM | – |
| Fc1cccc(-c2ccnc3[nH]c(-c4n[nH]c5cnc(C6=CCNCC6)cc45)nc23)c1 [Compound 938, 3-(7-(3-Fluorophenyl)-3H-imidazo[4,5-b]pyridin-2-yl)-5-(1,2,3,6-tetrahydropyridin-4-yl)-1H-pyrazolo[3,4-c]pyridine] | > 1000 nM | – |
| Fc1ccc(-c2ccnc3[nH]c(-c4n[nH]c5cnc(-c6cncc(CN7CCCC7)c6)cc45)nc23)s1 [Compound 352, 3-(7-(5-Fluorothiophen-2-yl)-3H-imidazo[4,5-b]pyridin-2-yl)-5-(5-(pyrrolidin-1-ylmethyl)pyridin-3-yl)-1H-pyrazolo[3,4-c]pyridine] | 156 nM | – |
| CCCCC(=O)Nc1cncc(-c2cc3c(-c4nc5c(-c6cc(F)cc(NCCN(C)C)c6)ccnc5[nH]4)n[nH]c3cn2)c1 [Compound 460] | 139 nM | – |
| CC(C)C(=O)Nc1cncc(-c2cc3c(-c4nc5c(-c6ccccc6F)ccnc5[nH]4)n[nH]c3cn2)c1 [Compound 61, N-(5-(3-(7-(2-Fluorophenyl)-3H-imidazo[4,5-b]pyridin-2-yl)-1H-pyrazolo[3,4-c]pyridin-5-yl)pyridin-3-yl)isobutyramide] | 77.8 nM | – |
| Fc1cccc(-c2ccnc3[nH]c(-c4n[nH]c5cnc(-c6cncc(OC7CCNCC7)c6)cc45)nc23)c1 [Compound 944, 3-(7-(3-Fluorophenyl)-3H-imidazo[4,5-b]pyridin-2-yl)-5-(5-(piperidin-4-yloxy)pyridin-3-yl)-1H-pyrazolo[3,4-c]pyridine] | > 10000 nM | – |
| CC(C)CC(=O)Nc1cncc(-c2cc3c(-c4nc5c(-c6cc(F)cc(OCCN(C)C)c6)ccnc5[nH]4)n[nH]c3cn2)c1 [Compound 1262] | – | > 10000 nM |
| Fc1cccc(-c2ccnc3[nH]c(-c4n[nH]c5cnc(-c6cncc(OC7CCCCC7)c6)cc45)nc23)c1 [Compound 943, 5-(5-(Cyclohexyloxy)pyridin-3-yl)-3-(7-(3-fluorophenyl)-3H-imidazo[4,5-b]pyridin-2-yl)-1H-pyrazolo[3,4-c]pyridine] | 950 nM | – |
| CCNCc1cncc(-c2cc3c(-c4nc5c(-c6cc(F)cc(NCCN(C)C)c6)ccnc5[nH]4)n[nH]c3cn2)c1 [Compound 448, N^1-(3-(2-(5-(5-((Ethylamino)methyl)pyridin-3-yl)-1H-pyrazolo[3,4-c]pyridin-3-yl)-3H-imidazo[4,5-b]pyridin-7-yl)-5-fluorophenyl)-N^2,N^2-dimethylethane-1,2-diamine] | > 10000 nM | – |
| CN(C)CC(=O)Nc1cncc(-c2cc3c(-c4nc5c(-c6cccc(F)c6)ccnc5[nH]4)n[nH]c3cn2)c1 [Compound 1437, 2-(Dimethylamino)-N-(5-(3-(7-(3-fluorophenyl)-3H-imidazo[4,5-b]pyridin-2-yl)-1H-pyrazolo[3,4-c]pyridin-5-yl)pyridin-3-yl)acetamide] | 646 nM | – |
| Fc1cccc(-c2ccnc3[nH]c(-c4n[nH]c5cnc(-c6cncc(OCc7ccccc7)c6)cc45)nc23)c1 [Compound 950, 5-(5-(Benzyloxy)pyridin-3-yl)-3-(7-(3-fluorophenyl)-3H-imidazo[4,5-b]pyridin-2-yl)-1H-pyrazolo[3,4-c]pyridine] | 4430 nM | – |
| CC(C)(C)C(=O)Nc1cncc(-c2cc3c(-c4nc5c(-c6ccc(F)s6)ccnc5[nH]4)n[nH]c3cn2)c1 [Compound 346, N-(5-(3-(7-(5-Fluorothiophen-2-yl)-3H-imidazo-[4,5-b]pyridin-2-yl)-1H-pyrazolo[3,4-c]pyridin-5-yl)pyridin-3-yl)pivalamide] | 62.1 nM | – |
| Fc1cccc(-c2ccnc3[nH]c(-c4n[nH]c5cnc(-c6cncc(OCCN7CCCC7)c6)cc45)nc23)c1 [Compound 946, 3-(7-(3-Fluorophenyl)-3H-imidazo[4,5-b]pyridin-2-yl)-5-(5-(2-(pyrrolidin-1-yl)ethoxy)pyridin-3-yl)-1H-pyrazolo[3,4-c]pyridine] | > 10000 nM | – |
| Fc1cccc(-c2ccnc3[nH]c(-c4n[nH]c5cnc(-c6ccncc6)cc45)nc23)c1 [Compound 952, -(7-(3-Fluorophenyl)-3H-imidazo[4,5-b]pyridin-2-yl)-5-(pyridin-4-yl)-1 H-pyrazolo[3,4-c]pyridine] | – | > 1000 nM |
| CN(C)c1cncc(-c2cc3c(-c4nc5c(N6CCCCC6)ccnc5[nH]4)n[nH]c3cn2)c1 [Compound 163, N,N-Dimethyl-5-(3-(7-(piperidin-1-yl)-3H-imidazo[4,5-b]pyridin-2-yl)-1H-pyrazolo[3,4-c]pyridin-5-yl)pyridin-3-amine] | 1030 nM | – |
| CC(C)CC(=O)Nc1cncc(-c2cc3c(-c4nc5c(-c6cc(O)cc(F)c6)ccnc5[nH]4)n[nH]c3cn2)c1 [Compound 1350, N-(5-(3-(7-(3-Fluoro-5-hydroxyphenyl)-3H-imidazo[4,5-b]pyridin-2-yl)-1H-pyrazolo[3,4-c]pyridin-5-yl)pyndin-3-yl)-3-methylbutanamide] | 253 nM | – |
| c1cncc(-c2ccnc3[nH]c(-c4n[nH]c5cnc(-c6cncc(CN7CCCCC7)c6)cc45)nc23)c1 [Compound 93, 5-(5-(Piperidin-1-ylmethyl)pyridin-3-yl)-3-(7-(pyridin-3-yl)-3H-imidazo[4,5-b]pyridin-2-yl)-1H-pyrazolo[3,4-c]pyridine] | > 10000 nM | – |
| Fc1cccc(-c2ccnc3[nH]c(-c4n[nH]c5cnc(C6CCNCC6)cc45)nc23)c1 [Compound 937, 3-(7-(3-Fluorophenyl)-3H-imidazo[4,5-b]pyridin-2-yl)-5-(piperidin-4-yl)-1H-pyrazolo[3,4-c]pyridine] | 1860 nM | – |
